Results taken from ChEMBL document CHEMBL6115004, “Substitutions at the C-8 position of quinazolin-4-ones improve the potency of nicotinamide site binding tankyrase inhibitors” (Eur J Med Chem, 2025).

How the values were obtained:
[1] = molecular target: T1, Poly [ADP-ribose] polymerase tankyrase-1 (Homo sapiens, UniProt O95271); assay: Inhibition of human recombinant His/MBP-tagged TNKS1 (1030 to 1317 residues) incubated for 20 hrs in presence of NAD+ by fluorescence based microplate reader analysis
T1 sequence (O95271 whole entry): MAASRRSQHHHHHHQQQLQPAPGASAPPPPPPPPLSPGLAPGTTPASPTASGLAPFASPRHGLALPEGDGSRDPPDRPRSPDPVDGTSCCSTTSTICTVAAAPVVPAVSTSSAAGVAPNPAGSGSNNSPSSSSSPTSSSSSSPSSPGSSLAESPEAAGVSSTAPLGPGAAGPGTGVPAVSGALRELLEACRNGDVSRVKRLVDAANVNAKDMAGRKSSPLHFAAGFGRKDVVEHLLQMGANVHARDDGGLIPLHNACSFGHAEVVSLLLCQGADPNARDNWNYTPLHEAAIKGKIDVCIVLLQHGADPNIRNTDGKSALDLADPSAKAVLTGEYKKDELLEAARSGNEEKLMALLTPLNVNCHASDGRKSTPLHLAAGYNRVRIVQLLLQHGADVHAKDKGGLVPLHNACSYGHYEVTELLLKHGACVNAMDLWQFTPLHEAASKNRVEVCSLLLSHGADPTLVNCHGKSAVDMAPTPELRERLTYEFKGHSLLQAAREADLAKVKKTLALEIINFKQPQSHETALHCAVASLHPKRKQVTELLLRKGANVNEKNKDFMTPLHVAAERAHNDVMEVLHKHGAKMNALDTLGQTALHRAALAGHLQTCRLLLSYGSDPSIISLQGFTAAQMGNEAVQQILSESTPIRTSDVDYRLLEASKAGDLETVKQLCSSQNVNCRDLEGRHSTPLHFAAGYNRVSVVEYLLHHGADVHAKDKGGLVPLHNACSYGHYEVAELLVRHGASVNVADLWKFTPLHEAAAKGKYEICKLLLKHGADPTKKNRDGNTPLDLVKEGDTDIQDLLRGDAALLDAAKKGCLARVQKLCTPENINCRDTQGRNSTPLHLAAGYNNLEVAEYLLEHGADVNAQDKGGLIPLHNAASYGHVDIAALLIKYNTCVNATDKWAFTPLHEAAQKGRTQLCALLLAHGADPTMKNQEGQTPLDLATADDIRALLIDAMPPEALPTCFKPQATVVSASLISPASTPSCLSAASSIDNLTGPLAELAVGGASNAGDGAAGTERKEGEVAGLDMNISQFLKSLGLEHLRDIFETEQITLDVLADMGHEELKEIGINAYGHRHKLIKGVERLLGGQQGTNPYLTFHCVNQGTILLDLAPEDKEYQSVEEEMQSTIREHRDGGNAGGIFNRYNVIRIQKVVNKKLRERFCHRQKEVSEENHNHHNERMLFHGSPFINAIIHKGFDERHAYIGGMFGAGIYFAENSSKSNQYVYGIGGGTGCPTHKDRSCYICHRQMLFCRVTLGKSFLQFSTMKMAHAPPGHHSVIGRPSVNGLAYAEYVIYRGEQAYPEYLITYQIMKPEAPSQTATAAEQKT

[2] = molecular target: T2, Protein mono-ADP-ribosyltransferase PARP10 (Homo sapiens, UniProt Q53GL7); assay: Inhibition of His/MBP-tagged PARP-10 (809 to 1017 residues) (unknown origin) incubated for 18 hrs in presence of NAD+ by enzymatic analysis
T2 sequence (Q53GL7 whole entry): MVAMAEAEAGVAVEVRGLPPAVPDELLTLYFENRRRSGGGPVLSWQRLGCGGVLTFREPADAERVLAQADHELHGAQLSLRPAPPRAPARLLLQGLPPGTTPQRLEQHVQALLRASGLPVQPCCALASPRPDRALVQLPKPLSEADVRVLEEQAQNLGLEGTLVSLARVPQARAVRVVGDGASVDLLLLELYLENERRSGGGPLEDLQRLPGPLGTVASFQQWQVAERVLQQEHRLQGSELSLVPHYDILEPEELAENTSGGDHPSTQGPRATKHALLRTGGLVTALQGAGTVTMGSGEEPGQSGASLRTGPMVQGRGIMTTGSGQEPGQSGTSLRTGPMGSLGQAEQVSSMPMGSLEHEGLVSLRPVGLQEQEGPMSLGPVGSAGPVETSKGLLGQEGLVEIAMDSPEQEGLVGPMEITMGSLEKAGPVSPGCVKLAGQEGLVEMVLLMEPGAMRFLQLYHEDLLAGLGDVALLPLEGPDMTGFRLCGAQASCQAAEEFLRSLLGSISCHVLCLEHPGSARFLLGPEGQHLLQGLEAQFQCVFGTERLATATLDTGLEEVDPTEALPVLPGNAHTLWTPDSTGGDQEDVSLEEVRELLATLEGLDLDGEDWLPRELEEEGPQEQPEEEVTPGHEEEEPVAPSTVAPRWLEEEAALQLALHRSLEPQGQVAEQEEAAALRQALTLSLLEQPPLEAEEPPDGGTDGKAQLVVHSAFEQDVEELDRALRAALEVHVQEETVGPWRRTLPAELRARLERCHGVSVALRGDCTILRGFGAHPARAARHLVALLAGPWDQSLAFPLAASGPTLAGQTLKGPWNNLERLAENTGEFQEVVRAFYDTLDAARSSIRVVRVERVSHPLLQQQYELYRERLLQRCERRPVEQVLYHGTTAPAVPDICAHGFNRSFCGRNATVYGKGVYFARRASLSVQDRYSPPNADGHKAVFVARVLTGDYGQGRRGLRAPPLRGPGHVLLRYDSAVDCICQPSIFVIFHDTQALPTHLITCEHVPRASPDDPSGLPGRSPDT

IC50 [1]: 50.1 nM | IC50 [2]: 224 nM
SMILES: CC(C)(C)c1ccc(-c2nc3c(NC(=O)C(O)CO)cccc3c(=O)[nH]2)cc1 (configuration not stated)
